Among the data in patent US10045954B2, “Use of novel anti-HPV pharmaceutical preparation” (INSTITUTE OF BIOMEDICAL ENGINEERING, CHINESE ACADEMY OF …, priority 2013, dated 2018) are TC0 and TC50 values, retold here.

Molecules are shown by their SMILES.

This data set concerns human cervical cancer Caski cells (HPV16 positive). Briefly: Cytotoxicity assay (MTT, Reed-Muench). The data set is classed as cell-based. As to conditions: 72 h. As for the experimental part:
(1) Cytotoxicity assay: human cervical cancer Caski cells (HPV16 positive) at an exponential phase cultured through a conventional culturing method is digested by a trypsase, such that the attached cells are detached. The cells are suspended in a liquid medium containing 10% of fetal bovine serum, and are cultured by inoculating in a 96-well plate, each well containing 1×10^5 cells. The cells are incubated in a CO2 incubator for 24 h to make the cells be attached. labeled amount of paracetamol or paracetamol pharmaceutical preparation prepared from examples 1-21 is dissolved in DMSO used for cell culture, and then the solution is diluted with the liquid medium into a series of drug culture media with increasing concentrations, wherein the concentrations are sequentially 25, 50, 100, 200 and 400 μg/mL. The culture medium is decanted, 100 μL drug culture medium formulated according to a multiple relationship is added into the administered group, while a culture medium is used instead of the drug solution for the control group, wherein four vice holes are used at each concentration, and the cells are incubated in a CO2 incubator for 72 h. The median toxic concentration (TC50) and maximal atoxic concentration (TC0) are calculated based on a Reed-Muench method, by using a MTT method.

For the molecule `CC(=O)Nc1ccc(O)cc1` [Example 1, paracetamol], the TC0 amounted to 200 µg/mL and the TC50 was >200 µg/mL.
